We go through 7 compounds from article PMC7857870, “Design and Synthesis of 4-O-Podophyllotoxin Sulfamate Derivatives as Potential Cytotoxic Agents” (Evidence-based Complementary and Alternative Medicine : eCAM, 2021).

“Also recorded” adds a separate entry of the source.

In series [1] the test system is human colon adenocarcinoma (HT29). Briefly: MTT cytotoxicity assay, 72 h. The series is classed as cell-based. Conditions: HT-29, MTT 72 h, read-out: IC50 ± SD, HT29. As for the experimental part:
(§1) Three cancer cell lines, human breast adenocarcinoma (MCF7), human ovary adenocarcinoma (A2780), and human colon adenocarcinoma (HT29), in addition the normal human fetal lung fibroblast (MRC5), were used. All cell lines were obtained from the ATCC. The three cancer cells were subcultured in RPMI-1640 media (10% FBS), while MRC5 was maintained in Eagles minimum essential medium (EMEM, 10% FBS), all at 37°C, 5% CO2, and 100% relative humidity.
(§2) As previously reported, the cytotoxicity of the six compounds, including podophyllotoxin as reference, was evaluated by the MTT assay. The three cell lines and one normal fibroblast cells were separately cultured in 96-well (3 × 10^3/well) and incubated at 37°C overnight. Final compound concentrations are as follows: 0, 0.005, 0.050, 0.500, 5.000, and 25.000 μM (DMSO 0.1%; n = 3). Plates were incubated for 72 h, followed by addition of MTT to each well. Plates were incubated for 3 hr, supernatant was aspirated, and DMSO was added to each well. The absorbance was read on multiplate reader. The optical density of the purple formazan A550 is proportional to the number of viable cells. Compound concentration causing 50% inhibition (IC50) compared to control cell growth (100%) was determined. GraphPad Prism version 5.00 for Windows, GraphPad Software, San Diego California, USA, was used for analysis.

Series [2] concerns human breast adenocarcinoma (MCF7). Briefly: MTT cytotoxicity assay, 72 h. Conditions: MTT 72 h, read-out: IC50 ± SD, MCF7. It is filed as cell-based. As for the experimental part:
as §1, §2

Series [3] has as its system human ovary adenocarcinoma (A2780). The experiment in a line: MTT cytotoxicity assay, 72 h. It is filed as cell-based. The conditions noted are these: MTT 72 h, read-out: IC50 ± SD, A2780. As for the experimental part: as §1, §2
In series [4] the test system is normal human fetal lung fibroblast (MRC5). Briefly: MTT cytotoxicity assay, 72 h, normal cells. The series is classed as cell-based. Conditions: MTT 72 h, normal fibroblasts, read-out: IC50 ± SD, MRC5. The procedure: as §1, §2
A further series concerns MCF7, A2780, and HT29. Briefly: MTT cytotoxicity assay, text summary over the three cancer cell lines and selectivity versus MRC5. It is filed as cell-based, human. Conditions: for selectivity against MCF7, A2780 and HT29 compared to MRC5 cells: cancer cells versus normal MRC5 cells; for IC50: Homo sapiens, MTT, range over three cancer cell lines, read-out: activity (IC50) against the three cell lines MCF7, A2780 and HT29. As for the experimental part:
as §1, §2

The subject of another series is MCF7 cells. Briefly: Annexin V FITC/PI apoptosis assay (flow cytometry). The conditions noted are these: 24 h treatment, 0.5-5.0 µM, dose-dependent. It is filed as cell-based, human. As for the experimental part:
Annexin V FITC/PI assay was used to evaluate possible ability to induce apoptosis. MCF7 cells were cultured in 6 well plates (1 × 10^5 cells/well) overnight at 37°C. Compounds 2, 3, and 7 were used to treat cells (0, 0.5, 1.0, and 5.0 µM). After 24 h, the supernatant of treated cells was collected in tubes and kept in ice, and cells were trypsinized and incubated at 37°C before being added to the tubes. MCF7 cells were centrifuged (2000 rpm) and washed with PBS (x1), and pellets resuspended in the binding buffer (100 μL) and annexin V FITC (10 μL). Tubes were incubated at room temperature in dark for 20 min, before adding binding buffer (400 μL) and 10 μL propidium iodide (PI). Analysis was performed by flow cytometry (BC, FC500, USA). Different cell populations (early apoptotic, late apoptotic, and necrotic cells) were identified by annexin V and PI staining.

The nature of series [5]: Stability observation of the prepared compound. It is filed as physicochemical. Conditions: excluded from the biological assay.

As to `COc1cc(C2c3cc4c(cc3C(OS(=O)(=O)Nc3ccccn3)C3COC(=O)C23)OCO4)cc(OC)c1OC` (centres unmarked) [Compound 5, 4-N-(2-Pyridinyl)podophyllotoxin Sulfamate], the melting point was 230 °C (dec.). Besides, in series [1], the concentration for half-maximal inhibition (IC50) came to 1048 ± 5 nM. In series [2], the IC50 was determined as 184 ± 52 nM. For the same compound, the IC50 in series [3] is 132 ± 12 nM. Besides, in series [4], the concentration for half-maximal inhibition (IC50) was determined as 47 ± 42 nM. Further, the “selectivity against MCF7, A2780 and HT29 compared to MRC5 cells” value (“selectivity against MCF7, A2780 and HT29” below) in the series on MCF7, A2780, and HT29 was “no selectivity”.

With `COc1cc(C2c3cc4c(cc3C(OS(=O)(=O)NCc3ccccn3)C3COC(=O)C23)OCO4)cc(OC)c1OC` (centres unmarked) [Compound 3, 4-N-(2-Pyridinylmethyl)podophyllotoxin Sulfamate], the concentration for half-maximal inhibition (IC50) in series [1] was 222 ± 98 nM; in series [2] it was 150 ± 60 nM; in series [3], 179 ± 10 nM; in series [4], 2030 ± 250 nM; in the series with MCF7, A2780, and HT29, 150 to 220 nM. The “increase of early apoptotic MCF7 cell population compared to control” value (from here on “increase”) in the series with MCF7 cells was 1.7–2.2 fold. For the same compound, the “selectivity against MCF7, A2780 and HT29” value in the series with MCF7, A2780, and HT29 is listed as 9.1–13.5 fold.

For the compound `COc1cc([C@@H]2c3cc4c(cc3[C@H](O)[C@H]3COC(=O)[C@H]23)OCO4)cc(OC)c1OC` [Podophyllotoxin], the 50% inhibitory concentration (IC50) in series [1] amounted to 2 ± 1 nM; in series [2], 4 ± 1 nM; in series [3] it was 7 ± 1 nM; in series [4] it was 43 ± 60 nM.

For `COc1cc(C2c3cc4c(cc3C(OS(=O)(=O)Nc3ccc5cc6ccccc6cc5c3)C3COC(=O)C23)OCO4)cc(OC)c1OC` (centres unmarked) [Compound 7, 4-N-(2-Anthracenyl)podophyllotoxin Sulfamate], the IC50 in series [1] is 5080 ± 673 nM; in series [2], 2120 ± 989 nM; in series [3], 3650 ± 1940 nM; in series [4] it was 9080 ± 1010 nM; with MCF7, A2780, and HT29, 2120 to 5080 nM. Besides, the “increase” value in the series with MCF7 cells is 1.7–2.2 fold.

Compound `COc1cc(C2c3cc4c(cc3C(OS(=O)(=O)NCCc3ccccn3)C3COC(=O)C23)OCO4)cc(OC)c1OC` (centres unmarked) [Compound 4, 4-N-(2-Pyridinylethyl)podophyllotoxin Sulfamate] yielded a melting point of 225 °C. In addition, the IC50 in series [1] amounted to 228 ± 75 nM. The half-maximal inhibitory concentration (IC50) in series [2] stood at 212 ± 10 nM. The IC50 in series [3] amounted to 456 ± 180 nM. The IC50 in series [4] turned out to be 48 ± 3 nM. Further, the “selectivity against MCF7, A2780 and HT29” value in the series with MCF7, A2780, and HT29 is given as “no selectivity”.

For `COc1cc(C2c3cc4c(cc3C(OS(N)(=O)=O)C3COC(=O)C23)OCO4)cc(OC)c1OC` (centres unmarked) [Compound 2, 4-O-Podophyllotoxin Sulfamate], the half-inhibitory concentration (IC50) is 1340 ± 637 nM in series [1]; 648 ± 87 nM in series [2]; 729 ± 363 nM in series [3]; 7510 ± 1510 nM in series [4]; ≤ 1000 nM in the series with MCF7, A2780, and HT29. Also, the “increase” value in the series with MCF7 cells is 1.7–2.2 fold. In addition, the “selectivity against MCF7, A2780 and HT29” value in the series on MCF7, A2780, and HT29 was “less cytotoxic against MRC5 cells; also recorded: moderate selectivity”.

Compound `COc1cc(C2c3cc4c(cc3C(OS(=O)(=O)Nc3ccc(F)cc3)C3COC(=O)C23)OCO4)cc(OC)c1OC` (centres unmarked) [Compound 6, 4-N-(4-Flourophenyl)podophyllotoxin Sulfamate] gave a melting point of 220 °C. In addition, in series [5], the “stability of the compound” value is listed as “unstable”.
